Measured values as given in ChEMBL document CHEMBL1151590, “Synthesis and anti-HIV activity of dibenzylbutyrolactone lignans” (Bioorg Med Chem Lett, 1996).
In brackets after ≈: the same amount, converted by molar mass.

Legend:
[1] = test system: H9; assay: Concentration which inhibited HIV-1 replication by 50% in acutely infected H9 cells; format: functional, cell-based; conditions: Homo sapiens
[2] = test system: H9; assay: Compound was tested for cytotoxic activity against acutely infected H9 cell growth.; format: functional, cell-based; conditions: Homo sapiens

EC50 [1]	SMILES	IC50 [2]
0.25 mg/L (≈ 0.73 µM)	COc1ccc(C[C@@H]2COC(=O)[C@H]2Cc2ccc(O)cc2)cc1OC	0.8 mg/L (≈ 2.34 µM)
1.8 mg/L (≈ 5.26 µM)	COc1ccc(C[C@@H]2COC(=O)[C@H]2Cc2cccc(O)c2)cc1OC	4 mg/L (≈ 11.7 µM)
0.16 mg/L (≈ 0.43 µM)	COc1cc(C[C@@H]2C(=O)OC[C@H]2Cc2ccc(OC)c(OC)c2)ccc1O	0.8 mg/L (≈ 2.15 µM)
1.5 mg/L (≈ 4.19 µM)	COc1ccc(C[C@@H]2COC(=O)[C@H]2Cc2ccc(O)c(O)c2)cc1OC	6 mg/L (≈ 16.7 µM)
2.2 mg/L (≈ 6.74 µM)	COc1ccc(C[C@@H]2COC(=O)[C@H]2Cc2ccccc2)cc1OC	20 mg/L (≈ 61.3 µM)
34 mg/L (≈ 144 µM)	COc1ccc(C[C@@H]2COC(=O)C2)cc1OC	100 mg/L (≈ 423 µM)
